Reference: patent US9095589B2, “Chirally pure isomers of itraconazole for use as angiogenesis inhibitors” (Johns Hopkins University, priority 2007, dated 2015)
“Also recorded” adds a separate entry of the source. Read-outs that look alike come from different tables or passages of the source.

Assays:
HUVEC [1] = assay: HUVEC Proliferation Assay of itraconazole stereoisomers; assay type: cell-based, human
Protocol: HUVEC were plated in a 96-well plate at a density of 2000 cells/well 199 μL media. After recovering overnight, cells were incubated for 24 hours with drugs added from 200×DMSO stocks. Next, cells were incubated with 0.9 μCi of [^3H]-thymidine for 6 h, washed once with PBS, trypsinized, and transferred to filtermats (Wallac) using a Mach III M Harvester 96 (Tomtec). The filtermats were then dried overnight. Using a 1450 Microbeta apparatus (Wallac), the amount of [^3H] at each position on the filtermat was determined by scintillation counting. Counts from vehicle only treated controls were used to normalize for maximum proliferation. Experiments were conducted in triplicate with multiple technical replicates for each data point. A four parameter logistic regression was used to determine IC50 values (GraphPad Prism [v4.03]).
(§1) After the quality of all stereoisomers was confirmed, the potency of each stereoisomer against HUVEC proliferation and fungal growth was determined (FIG. 7). HUVEC were incubated with drug or vehicle alone for 24 hours and then pulsed for 6 hours with [^3H]-thymidine, the incorporation of which was taken as a readout of cell proliferation. Inhibition of fungal growth was assayed by incubating five yeast strains with 2-fold serial dilutions of each stereoisomer for 30-60 hours depending on the strain, and then measuring the OD600 of the culture to quantitate growth. The minimum concentration capable of inhibiting growth by 80% (MIC80) was determined.

C. neoformans H99 = assay: Fungal Susceptibility Assay (MIC80), C. neoformans; assay type: cell-based
Text: (§2) Pooled HUVEC and EGM-2 bullet kits were purchased from Lonza. Powdered RPMI 1640 media with L-glutamine and without sodium bicarbonate was purchased from Gibco. Amino acids, uracil, and agar were purchased from Sigma and morpholinepropanesulfonic acid (MOPS) was purchased from Fisher. Dimethyl Sulfoxide (DMSO) was purchased from J. T. Baker. C. glabrata strains BG1 (J. Infect. Dis. 1996, 173, 425-431) and BG2 (Genetics 1999, 151, 979-987), C. neoformans H99 (Am. J. Pathol. 1980, 101, 177-193), S. cerevisiae BY4741 (MATa, ura3, his3, leu2, met15), and C. albicans (ATCC 10261) were used.
Fungi were grown overnight in 5 mL YES supplemented 225 mg/L adenine, histidine, leucine, uracil, and lysine (supplemented YES) at 30° C. with shaking. Cultures were diluted to 0.01 OD600 in RPMI (with L-glutamine, without sodium bicarbonate) which was supplemented with 2% glucose, 225 mg/L adenine, histidine, methionine, leucine, uracil, and lysine and buffered with 165 mM MOPS to 7.0 (complete RPMI). This solution was then further diluted 190-fold in complete RPMI in 96-well plates containing test compounds in a final volume of 150 μL. When practical, the intermediate RPMI dilution was bypassed and the overnight cultures were directly diluted to the appropriate OD600 in the RPMI solution that was added to the 96-well plates. Two-fold serial dilutions of the compounds were tested starting at 4 ug/mL with each well containing 0.125% vehicle (DMSO). The plates were incubated in a humidified environment at 30° C. with shaking for 30 hours except for experiments with C. neoformans which was incubated for 54 h. Abs600 was measured using a plate reader (Bio-Tek Synergy HT) after vigorous shaking for 45 seconds to resuspend the cells. The background absorbance from noninoculated wells was subtracted and the absorbance of test wells was divided by that of wells treated with vehicle alone. The percent of remaining growth for each drug concentration was averaged over 2-3 independent experiments, each with two technical replicates, and the minimum concentration giving 80% inhibition (MIC80) was determined.
as §1

five yeast strains = assay: Fungal Susceptibility Assays (MIC80); assay type: cell-based, C. glabrata, C. neoformans, S. cerevisiae, C. albicans; conditions: four out of five strains
Text: as §2
Fungi were grown overnight in 5 mL YES supplemented 225 mg/L adenine, histidine, leucine, uracil, and lysine (supplemented YES) at 30° C. with shaking. […] Abs600 was measured using a plate reader (Bio-Tek Synergy HT) after vigorous shaking for 45 seconds to resuspend the cells. The background absorbance from noninoculated wells was subtracted and the absorbance of test wells was divided by that of wells treated with vehicle alone. […]
After the quality of all stereoisomers was confirmed, the potency of each stereoisomer against HUVEC proliferation and fungal growth was determined (FIG. 7). HUVEC were incubated with drug or vehicle alone for 24 hours and then pulsed for 6 hours with [^3H]-thymidine, the incorporation of which was taken as a readout of cell proliferation. […]

BAEC [2] = assay: BAEC proliferation with or without free cholesterol ([3H]-thymidine); assay type: cell-based, bovine; conditions: for IC50: Bos taurus, DMEM 10% LPDS, 36 h
Protocol: BAEC were incubated in DMEM, 10% lipoprotein deficient serum (LPDS) with indicated concentrations of itraconazole (a) azalanstat (b) or TNP-470 (c) either alone or in combination with 40 μg/ml free cholesterol for 36 h. Cells were then pulsed with 1 μCi [^3H]-thymidine for 8 h before they are harvested for scintillation counting.
(§3) HUVEC were purchased from Cambrex Biosciences (Walkersvilie, Md.) and maintained in EGM-2 media (Cambrex) which contains VEGF, bFGF, and EGF. LPDS were purchased from Intracell. BAEC and Hela cells were maintained in DMEM media containing 10% FBS. Jurkat cells were maintained in RPMI media containing 10% FBS. In a typical experiment 5,000-10,000 cells/well in 0.2 mL EGM-2 media were allowed to adhere for 8 h and then incubated with drug for 36 h. Cells were pulsed with 1 μCi [^3H]-thymidine for 8 h (MP Biomedicals, 6.7 Ci/mmol), and harvested using trypsin onto glass fiber filters (Wallac, Turku, Finland). The readout was performed on a Perkin Elmer MicroBeta plate reader. Cells used were under five passages.
A hallmark of inhibitors of 14DM is that their potencies are dependent on the levels of cholesterol in cell culture medium. Thus, the potencies of both azalanstat and itraconazole in cell culture media either containing or lacking cholesterol was determined.

HUVEC [3] = assay: HUVEC proliferation assay ([3H]-thymidine incorporation); assay type: cell-based, human; conditions: for IC50: Homo sapiens, HUVEC
Protocol: as §3
Endothelial cells form the inner lining of all blood vessels and constitute an essential part of new as well as pre-existing blood vessels. An endothelial cell proliferation assay was utilized to screen our clinical drug library. The screen was carried out in 96-well plates with each drug at a final concentration of 10 μM. Thus, HUVEC were incubated with drugs for 36 h and proliferation was measured by following incorporation of [3H]-thymidine for the final 8 h. The preliminary screen identified 210 existing drugs with at least 50% inhibition at 10 μM, which belong to multiple drug classes (FIG. 1a).

HUVEC [4] = assay: HUVEC cell cycle analysis (propidium iodide, FACS); assay type: cell-based, human
Text: To delineate the mechanism of inhibition of endothelial cell proliferation by itraconazole, the effect on the cell cycle progression of HUVEC by fixing and staining cells with propidium iodide followed by FACS analysis was examined.

BAEC [5] = assay: Cell cycle progression of BAEC; assay type: cell-based, bovine
[6] = test system: new blood vessel formation in Matrigel plugs; assay: Mouse Matrigel model of angiogenesis; assay type: in vivo; conditions: mice, 37.5 mg/kg i.p. once daily, Matrigel with VEGF and bFGF, 10 days
Protocol: To determine whether itraconazole inhibited angiogenesis in vivo, itraconazole was tested in a mouse Matrigel model. […] Female athymic nude 5-week old, 25-30 g mice were purchased from NO and treated in accordance with standard procedures. In all animal experiments the i.v. formulation of itraconazole was obtained from the Johns Hopkins Hospital Pharmacy. Control mice were treated with vehicle (40% hydroxypropyl-β-cyclodextrin, 2.5% propylene glycol, pH 4.5). Mice were pretreated for three days and then implanted subcutaneously with 0.5 mL of Matrigel (BD Biosciences) containing 100 ng/mL VEGF and 150 ng/mL bFGF. Drug treatment was continued daily for 10 days, mice were sacrificed, and plugs were harvested, fixed in neutral buffered formalin, and processed for histology using MAS-trichrome staining. A cross section of the entire Matrigel plug was photographed at 100× and erythrocyte-filled blood vessels were counted per field in a blinded manner. P-values comparing itraconazole versus vehicle treated mice were determined using the two-tailed Student's T-test; and the data are presented as mean±s.e.m.

[7] = test system: human foreskin fibroblasts (HFF); assay: Human foreskin fibroblast proliferation (Calcein-AM); assay type: cell-based; conditions: 96 h with drug
Protocol: Human foreskin fibroblast (HFF) cells were cultured at passage 2 in DMEM low glucose, 10% fetal bovine serum, and 1% penicillin-streptomycin. Experiments were performed with 2,500 cells/well in 0.2 mL and incubated for 96 h with drug. Plates containing cells were washed once with PBS, incubated with 1 μM Calcein-AM (Molecular Probes) in PBS for 4 h, and read in a fluorescent plate reader. IC50 values were determined using four-parameter logarithmic analysis with GraphPad Prism and are presented as mean±s.e.m. for triplicate experiments.

[8] = 40 μg/ml free cholesterol, read-out: IC50, endothelial cell proliferation in the presence of cholesterol
[9] = no cholesterol, read-out: IC50, endothelial cell proliferation in the absence of cholesterol

**Q.** `CC[C@H](C)n1ncn(-c2ccc(N3CCN(c4ccc(OC[C@@H]5CO[C@@](Cn6cncn6)(c6ccc(Cl)cc6Cl)O5)cc4)CC3)cc2)c1=O` [Compound 23a, 4-(4-(4-(4-(((2S,4R)-2-((1H-1,2,4-triazol-1-yl)methyl)-2-(2,4-dichlorophenyl)-1,3-dioxolan-4-yl)methoxy)phenyl)piperazin-1-yl)phenyl)-1-((S)-sec-butyl)-1H-1,2,4-triazol-5(4H)-one] was tested. Which “potency against HUVEC proliferation” value (HUVEC [1]) did it give?
**A.** greatest antiangiogenic potential

**Q.** And the “difference in potency between 23a and 23f (most and least potent), HUVEC proliferation” value (HUVEC [1]; 24 h with drug)?
**A.** greater than 4 fold

**Q.** `CC[C@H](C)n1ncn(-c2ccc(N3CCN(c4ccc(OC[C@H]5CO[C@@](Cn6cncn6)(c6ccc(Cl)cc6Cl)O5)cc4)CC3)cc2)c1=O` [Compound 23e, 4-(4-(4-(4-(((2S,4S)-2-((1H-1,2,4-triazol-1-yl)methyl)-2-(2,4-dichlorophenyl)-1,3-dioxolan-4-yl)methoxy)phenyl)piperazin-1-yl)phenyl)-1-((S)-sec-butyl)-1H-1,2,4-triazol-5(4H)-one] was tested. Which “fold less potent than 23g and 23h” value (C. neoformans H99) did it give?
**A.** 2 fold

**Q.** And the “fold less potent than the best inhibitor” value (C. neoformans H99)?
**A.** 32 fold

**Q.** And the “antifungal potency” value (five yeast strains)?
**A.** roughly as potent as the cis-diastereomers; also recorded: about as potent as the cis diastereomers

**Q.** For `CO[C@@H]1[C@H](OC(=O)NC(=O)CCl)CC[C@]2(CO2)[C@H]1[C@@]1(C)O[C@@H]1CC=C(C)C` [TNP-470], which “potency on endothelial cell proliferation in absence versus presence of cholesterol” value (BAEC [2]; with or without 40 μg/ml free cholesterol) is on record?
**A.** roughly equal potency

**Q.** Which “potency against HUVEC proliferation” value (HUVEC [1]) does the source give for `CC[C@@H](C)n1ncn(-c2ccc(N3CCN(c4ccc(OC[C@@H]5CO[C@@](Cn6cncn6)(c6ccc(Cl)cc6Cl)O5)cc4)CC3)cc2)c1=O` [Compound 23b, 4-(4-(4-(4-(((2S,4R)-2-((1H-1,2,4-triazol-1-yl)methyl)-2-(2,4-dichlorophenyl)-1,3-dioxolan-4-yl)methoxy)phenyl)piperazin-1-yl)phenyl)-1-((R)-sec-butyl)-1H-1,2,4-triazol-5(4H)-one] here?
**A.** greatest antiangiogenic potential

**Q.** Which IC50 (HUVEC [3]) does the source give for `CCC(C)n1ncn(-c2ccc(N3CCN(c4ccc(OC[C@H]5CO[C@](Cn6cncn6)(c6ccc(Cl)cc6Cl)O5)cc4)CC3)cc2)c1=O` (single isomer, unassigned; stereoisomer 4) [4S-cis stereoisomer] here?
**A.** 1100 ± 130 nM

**Q.** And the “effect on HUVEC cell cycle progression” value (HUVEC [4])?
**A.** potently inhibits HUVEC cell cycle progression at the G1/S transition

**Q.** `CCC(C)n1ncn(-c2ccc(N3CCN(c4ccc(OC[C@@H]5CO[C@@](Cn6cncn6)(c6ccc(Cl)cc6Cl)O5)cc4)CC3)cc2)c1=O` (single isomer, unassigned; diastereomer 4) [4R-cis diastereomer] was tested. Which “potency against HUVEC proliferation” value (HUVEC [1]) did it give?
**A.** slightly more potent than the cis-4S isomer

**Q.** And the “fold more potent than the 4S-cis stereoisomer, HUVEC proliferation” value (HUVEC [3])?
**A.** about 20 fold

**Q.** And the IC50 (HUVEC [3])?
**A.** 56 ± 10 nM

**Q.** How did the IC50 (BAEC [2]; [8]) turn out when `Nc1ccc(SC[C@@H]2CO[C@](CCc3ccc(Cl)cc3)(Cn3ccnc3)O2)cc1` [Azalanstat] was run?
**A.** 1200 nM

**Q.** What about the IC50 (BAEC [2]; [9]) of the same molecule?
**A.** 310 nM

**Q.** And the “percentage of cells in G1” value (BAEC [5]; Cholesterol)?
**A.** 70.2%

**Q.** And the “percentage of cells in G2/M” value (BAEC [5]; Cholesterol)?
**A.** 10.0%

**Q.** And the “percentage of cells in S” value (BAEC [5]; Cholesterol)?
**A.** 19.4%

**Q.** What about the “percentage of cells in G1” value (BAEC [5]; Control (no added cholesterol)) of the same molecule?
**A.** 74.5%

**Q.** And the “percentage of cells in G2/M” value (BAEC [5]; Control (no added cholesterol))?
**A.** 8.8%

**Q.** And the “percentage of cells in S” value (BAEC [5]; Control (no added cholesterol))?
**A.** 16.8%

**Q.** What about the “effect on HUVEC cell cycle progression” value (HUVEC [4]) of the same molecule?
**A.** blocked the cell cycle progression

**Q.** With `CC[C@@H](C)n1ncn(-c2ccc(N3CCN(c4ccc(OC[C@H]5CO[C@@](Cn6cncn6)(c6ccc(Cl)cc6Cl)O5)cc4)CC3)cc2)c1=O` [Compound 23f, 4-(4-(4-(4-(((2S,4S)-2-((1H-1,2,4-triazol-1-yl)methyl)-2-(2,4-dichlorophenyl)-1,3-dioxolan-4-yl)methoxy)phenyl)piperazin-1-yl)phenyl)-1-((R)-sec-butyl)-1H-1,2,4-triazol-5(4H)-one] as the molecule, how does the “fold less potent than 23g and 23h” value (C. neoformans H99) read?
**A.** 2 fold

**Q.** And the “fold less potent than the best inhibitor” value (C. neoformans H99)?
**A.** 32 fold

**Q.** What about the “antifungal potency” value (five yeast strains) of the same molecule?
**A.** roughly as potent as the cis-diastereomers; also recorded: about as potent as the cis diastereomers

**Q.** `CCC(C)n1ncn(-c2ccc(N3CCN(c4ccc(OCC5COC(Cn6cncn6)(c6ccc(Cl)cc6Cl)O5)cc4)CC3)cc2)c1=O` (racemic) [Itraconazole] was tested. Which IC50 (BAEC [2]; [8]) did it give?
**A.** 230 nM

**Q.** And the IC50 (BAEC [2]; [9])?
**A.** 44 nM

**Q.** And the IC50 (HUVEC [3])?
**A.** 160 nM

**Q.** And the “percentage of cells in G1” value (BAEC [5]; Cholesterol)?
**A.** 66.2%

**Q.** What about the “percentage of cells in G2/M” value (BAEC [5]; Cholesterol) of the same molecule?
**A.** 12.0%

**Q.** And the “percentage of cells in S” value (BAEC [5]; Cholesterol)?
**A.** 21.2%

**Q.** What about the “percentage of cells in G1” value (BAEC [5]; Control (no added cholesterol)) of the same molecule?
**A.** 77.0%

**Q.** What about the “percentage of cells in G2/M” value (BAEC [5]; Control (no added cholesterol)) of the same molecule?
**A.** 12.0%

**Q.** What about the “percentage of cells in S” value (BAEC [5]; Control (no added cholesterol)) of the same molecule?
**A.** 10.5%

**Q.** What about the “decrease in new blood vessel formation compared to vehicle-treated controls” value [6] of the same molecule?
**A.** 67.5%

**Q.** What about the IC50 [7] of the same molecule?
**A.** > 20000 nM
